Assay results reported in ChEMBL document CHEMBL5291721, “A preclinical secondary pharmacology resource illuminates target-adverse drug reaction associations of marketed drugs” (Nat Commun, 2023).
“And” between values parts separate entries of the source, which are not always exact repeats. Equal values may be shown once.

Legend:
[1] = biological target: T1, Alpha-1A adrenergic receptor (Homo sapiens, UniProt P35348); assay type: functional, cell-based
T1 sequence (P35348 whole entry): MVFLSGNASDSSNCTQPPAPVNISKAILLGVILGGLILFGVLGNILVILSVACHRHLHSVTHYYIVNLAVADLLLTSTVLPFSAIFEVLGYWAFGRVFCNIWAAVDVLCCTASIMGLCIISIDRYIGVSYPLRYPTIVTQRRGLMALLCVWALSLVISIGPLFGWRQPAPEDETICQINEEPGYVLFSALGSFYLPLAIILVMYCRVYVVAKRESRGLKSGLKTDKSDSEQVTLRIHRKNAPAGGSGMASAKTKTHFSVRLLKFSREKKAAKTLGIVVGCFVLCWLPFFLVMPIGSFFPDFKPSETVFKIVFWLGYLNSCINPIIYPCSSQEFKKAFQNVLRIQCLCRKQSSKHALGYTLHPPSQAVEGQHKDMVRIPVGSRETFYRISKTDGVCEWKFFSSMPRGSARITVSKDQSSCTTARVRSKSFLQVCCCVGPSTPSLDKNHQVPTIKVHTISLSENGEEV

[2] = biological target: T2, Alpha-2A adrenergic receptor (Homo sapiens, UniProt P08913); assay type: functional, cell-based
T2 sequence (P08913 whole entry): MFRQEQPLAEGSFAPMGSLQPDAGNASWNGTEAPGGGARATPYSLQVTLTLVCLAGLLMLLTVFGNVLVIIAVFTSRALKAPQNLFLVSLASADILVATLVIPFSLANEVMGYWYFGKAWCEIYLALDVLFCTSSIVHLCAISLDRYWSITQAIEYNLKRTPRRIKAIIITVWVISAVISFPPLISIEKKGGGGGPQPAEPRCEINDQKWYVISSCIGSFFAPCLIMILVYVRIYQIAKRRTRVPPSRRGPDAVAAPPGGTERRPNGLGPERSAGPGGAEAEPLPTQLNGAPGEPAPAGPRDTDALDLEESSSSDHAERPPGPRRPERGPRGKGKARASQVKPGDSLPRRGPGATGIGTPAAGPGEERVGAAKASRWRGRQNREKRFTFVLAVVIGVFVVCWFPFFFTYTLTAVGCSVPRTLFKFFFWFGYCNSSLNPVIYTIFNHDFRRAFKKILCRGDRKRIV

[3] = biological target: T3, Muscarinic acetylcholine receptor M1 (Homo sapiens, UniProt P11229); assay type: functional
T3 sequence (P11229 whole entry): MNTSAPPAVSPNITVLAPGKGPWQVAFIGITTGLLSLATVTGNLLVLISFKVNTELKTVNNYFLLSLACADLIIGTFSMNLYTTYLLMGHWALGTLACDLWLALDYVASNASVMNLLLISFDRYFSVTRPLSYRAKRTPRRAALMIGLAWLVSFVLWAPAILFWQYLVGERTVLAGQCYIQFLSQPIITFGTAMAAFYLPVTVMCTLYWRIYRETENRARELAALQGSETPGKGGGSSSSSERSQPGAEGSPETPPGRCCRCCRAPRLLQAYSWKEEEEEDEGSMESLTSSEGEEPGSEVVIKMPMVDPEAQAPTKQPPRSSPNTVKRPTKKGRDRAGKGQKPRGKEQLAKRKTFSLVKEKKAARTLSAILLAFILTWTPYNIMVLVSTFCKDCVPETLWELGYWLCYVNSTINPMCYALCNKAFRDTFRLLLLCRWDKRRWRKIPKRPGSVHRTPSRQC

[4] = biological target: T2, Alpha-2A adrenergic receptor
Prothrombin = Prothrombin (Homo sapiens, UniProt P00734); assay type: functional
Progesterone receptor = biological target: T4, Progesterone receptor (Homo sapiens, UniProt P06401); assay type: functional
T4 sequence (P06401 whole entry): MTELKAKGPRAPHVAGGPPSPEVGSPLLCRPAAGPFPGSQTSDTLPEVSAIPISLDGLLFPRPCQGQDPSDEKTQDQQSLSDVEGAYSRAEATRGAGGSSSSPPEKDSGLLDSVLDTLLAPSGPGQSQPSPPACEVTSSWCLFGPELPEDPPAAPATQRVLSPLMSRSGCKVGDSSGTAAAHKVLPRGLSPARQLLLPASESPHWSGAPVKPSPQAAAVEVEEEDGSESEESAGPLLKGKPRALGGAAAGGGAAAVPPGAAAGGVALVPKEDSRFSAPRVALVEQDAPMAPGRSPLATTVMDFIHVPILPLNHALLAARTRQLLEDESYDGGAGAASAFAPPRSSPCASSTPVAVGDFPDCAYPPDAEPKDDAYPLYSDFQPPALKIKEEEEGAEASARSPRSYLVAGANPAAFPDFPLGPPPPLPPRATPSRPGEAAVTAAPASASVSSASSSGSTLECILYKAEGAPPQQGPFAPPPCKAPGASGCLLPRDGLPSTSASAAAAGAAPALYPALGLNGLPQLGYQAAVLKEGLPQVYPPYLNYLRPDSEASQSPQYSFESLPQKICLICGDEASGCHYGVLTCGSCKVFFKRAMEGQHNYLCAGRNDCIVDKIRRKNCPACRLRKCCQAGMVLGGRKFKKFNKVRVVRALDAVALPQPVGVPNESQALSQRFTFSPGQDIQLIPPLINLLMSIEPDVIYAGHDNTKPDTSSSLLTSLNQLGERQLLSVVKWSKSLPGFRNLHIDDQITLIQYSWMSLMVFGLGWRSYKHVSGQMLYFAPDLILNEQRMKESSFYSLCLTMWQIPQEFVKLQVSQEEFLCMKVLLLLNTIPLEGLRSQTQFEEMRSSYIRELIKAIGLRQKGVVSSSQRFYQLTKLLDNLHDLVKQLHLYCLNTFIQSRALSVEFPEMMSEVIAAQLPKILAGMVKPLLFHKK
Further: assay procedure not described here.

Row | SMILES | AC50 [1] [µM] | AC50 [2] [µM] | AC50 [3] | AC50 [4] [µM] | AC50 (Prothrombin) [µM] | AC50 (Progesterone receptor) [µM]
1 | CC12CC3CC(C)(C1)CC(N)(C3)C2 [MEMANTINE] | > 30 | > 10 | > 10 µM | – | – | –
2 | CC(=O)O[C@]1(C(C)=O)CC[C@H]2[C@@H]3C=C(Cl)C4=CC(=O)CC[C@]4(C)[C@H]3CC[C@@]21C [CHLORMADINONE ACETATE] | – | – | – | > 30 | > 30 | –
3 | C=CCSCC1Nc2cc(Cl)c(S(N)(=O)=O)cc2S(=O)(=O)N1 (centres undefined) [ALTHIAZIDE] | – | – | – | > 30 | > 30 | –
4 | O=[N+]([O-])c1ccc(O)c2ncccc12 [NITROXOLINE] | > 30 | > 30 | 8.5 µM | > 30 | > 30 | –
5 | COc1cc(N2CCC(N3CCN(C)CC3)CC2)ccc1Nc1ncc(Cl)c(Nc2ccccc2P(C)(C)=O)n1 [BRIGATINIB] | – | – | – | > 30 | > 30 | –
6 | CCCc1nc(C(C)(C)O)c(C(=O)O)n1Cc1ccc(-c2ccccc2-c2nnn[nH]2)cc1 [OLMESARTAN] | – | – | – | > 30 | > 30 | –
7 | c1ccc2c(c1)CCc1ccccc1N2C1CN2CCC1CC2 (centres undefined) [QUINUPRAMINE] | – | – | – | 13.2 | > 30 | –
8 | C=C1CC[C@H](O)C/C1=C/C=C1\CCC[C@]2(C)[C@@H]([C@H](C)/C=C/[C@H](C)C(C)C)CC[C@@H]12 [ERGOCALCIFEROL] | – | – | – | > 30 | > 30 | –
9 | Cc1cc(N)c2ccccc2[n+]1CCCCCCCCCC[n+]1c(C)cc(N)c2ccccc21 | – | – | – | 0.464 | 28.8 | –
10 | CCOC(=O)N1CSC[C@H]1C(=O)O [TELMESTEINE] | – | – | – | > 30 | > 30 | –
11 | COC(=O)c1ccc(O)cc1 [METHYLPARABEN] | – | – | – | > 30 | > 30 | –
12 | CCC[C@H](NC(=O)[C@@H]1[C@H]2CCC[C@H]2CN1C(=O)[C@@H](NC(=O)[C@@H](NC(=O)c1cnccn1)C1CCCCC1)C(C)(C)C)C(=O)C(=O)NC1CC1 | – | – | > 10 µM | – | – | –
13 | CC1=CCC(C(C)(C)O)CC1O (centres undefined) [SOBREROL] | – | – | – | > 30 | > 30 | –
14 | NCC(CC(=O)O)c1ccccc1 (centres undefined) [PHENIBUT] | – | – | – | > 30 | > 30 | –
15 | CN1C(=O)/C(=N\NC(N)=S)c2ccccc21 [METHISAZONE] | – | – | – | > 30 | > 30 | –
16 | CCOC(=O)[C@H](CCc1ccccc1)N[C@@H](C)C(=O)N(CC(=O)O)C1Cc2ccccc2C1 | – | – | – | > 30 | > 30 | –
17 | Cc1ncc(COP(=O)(O)O)c(C=O)c1O [PYRIDOXAL PHOSPHATE ANHYDROUS] | – | – | – | > 30 | > 30 | –
18 | CNCc1ccc(-c2[nH]c3cc(F)cc4c3c2CCNC4=O)cc1 [RUCAPARIB] | – | – | > 10 µM | – | – | –
19 | Cc1ccccc1N1CCN(CCc2nnc3n2CCCC3)CC1 [DAPIPRAZOLE] | – | – | – | 3.77 | > 30 | –
20 | C[C@H](Cc1cc2c(c(C(N)=O)c1)N(CCCO)CC2)NCCOc1ccccc1OCC(F)(F)F [SILODOSIN] | – | 10 | – | 1.28 | > 30 | –
21 | CC(N)C(O)c1ccccc1 (centres undefined) [PHENYLPROPANOLAMINE] | > 30 | > 10 | > 10 µM | – | – | –
22 | Cc1cnc(C(=O)NCCc2ccc(S(=O)(=O)NC(=O)NC3CCCCC3)cc2)cn1 [GLIPIZIDE] | – | > 10 | – | > 30 | > 30 | –
23 | C[C@H](Cc1ccc(O)c(O)c1)[C@@H](C)Cc1ccc(O)c(O)c1 [MASOPROCOL] | > 30 | > 10 | > 10 µM and 29 µM and > 30 µM | – | – | –

Row | SMILES | AC50 [1] [µM] | AC50 [2] [µM] | AC50 [3] | AC50 [4] [µM] | AC50 (Prothrombin) [µM] | AC50 (Progesterone receptor) [µM]
24 | CCOC(=O)C1=C(C)NC(C)=C(C(=O)OC)C1c1cccc([N+](=O)[O-])c1 (centres undefined) [NITRENDIPINE] | > 30 | > 10 | – | – | – | –
25 | CC(C)(C)NC[C@H](O)COc1cccc2c1CCCC2=O [LEVOBUNOLOL] | – | – | – | > 30 | > 30 | –
26 | COc1cc2c(cc1OC)CC(=O)N(CCCN(C)C[C@H]1Cc3cc(OC)c(OC)cc31)CC2 [IVABRADINE] | – | – | – | > 30 | > 30 | –
27 | CC(C)NCC(O)c1ccc(O)c(O)c1 (centres undefined) [ISOPROTERENOL] | – | – | – | – | – | > 30
28 | CC(N)Cc1ccc(O)cc1 (centres undefined) [HYDROXYAMPHETAMINE] | – | – | – | > 30 | > 30 | –
29 | COc1ccc(CN(CCN(C)C)c2ccccn2)cc1 [PYRILAMINE] | – | – | – | 7.07 | > 30 | –
30 | CCN(CCCc1ccccc1)CCCc1ccccc1 [ALVERINE] | – | – | – | 1.96 | > 30 | –
31 | CC(C)N(CCNC(=O)CN1CCCC1=O)C(C)C | – | – | – | > 30 | > 30 | –
32 | CCCCC(=O)O[C@]1(C(=O)CO)[C@@H](C)C[C@H]2[C@@H]3CCC4=CC(=O)C=C[C@]4(C)[C@@]3(F)[C@@H](O)C[C@@]21C [BETAMETHASONE VALERATE] | > 30 | > 10 | > 10 µM | – | – | –
33 | Cc1cc(NC(=O)C2=C(O)c3ccccc3S(=O)(=O)N2C)no1 [ISOXICAM] | – | – | – | > 30 | > 30 | –
34 | CCCC(CCC)C(N)=O [VALPROMIDE] | > 30 | > 10 | > 10 µM | – | – | –
35 | CCCCC1C(=O)N(c2ccccc2)N(c2ccccc2)C1=O [PHENYLBUTAZONE] | – | > 10 | – | – | – | > 10
36 | CC(C)(C)C(=O)OCC(=O)[C@H]1CC[C@H]2[C@@H]3CCC4=CC(=O)CC[C@]4(C)[C@H]3CC[C@]12C [DESOXYCORTICOSTERONE PIVALATE] | > 30 | > 10 | > 10 µM | – | – | –
37 | O=C(O)c1cn(C2CC2)c2cc(N3CCNCC3)c(F)cc2c1=O [CIPROFLOXACIN] | – | – | – | – | > 30 | –
38 | CCN(CC)C(=S)S [DITIOCARB] | – | – | – | > 30 | > 30 | –
39 | CCC(=O)O[C@H]1CC[C@H]2[C@@H]3CCC4=CC(=O)CC[C@]4(C)[C@H]3CC[C@]12C [TESTOSTERONE PROPIONATE] | > 30 | > 10 | > 10 µM | – | – | –
40 | Cc1c(N(C)CS(=O)(=O)O)c(=O)n(-c2ccccc2)n1C [METAMIZOLE] | – | – | – | > 30 | > 30 | –
41 | NC(=O)OCC(O)COc1ccc(Cl)cc1 (centres undefined) [CHLORPHENESIN CARBAMATE] | – | – | – | > 30 | > 30 | –
42 | CN1CCC(=C2c3ccccc3CCc3cccnc32)CC1 [AZATADINE] | > 30 | > 10 | 0.11 µM | – | – | –
43 | CNC1=Nc2ccc(Cl)cc2C(c2ccccc2)=[N+]([O-])C1 [CHLORDIAZEPOXIDE] | > 30 | > 10 | – | – | – | –
44 | CN(C)CCOC(c1ccccc1)c1ccc(Br)cc1 (centres undefined) [BROMODIPHENHYDRAMINE] | – | – | – | 8.38 | > 30 | –
45 | CCC(=O)O[C@]1(C(=O)CCl)[C@@H](C)C[C@H]2[C@@H]3C[C@H](F)C4=CC(=O)C=C[C@]4(C)[C@@]3(F)[C@@H](O)C[C@@]21C [HALOBETASOL PROPIONATE] | – | – | – | > 30 | > 30 | –
